Consider 5 compounds from patent publication US20220372013A2, “PIPERIDINE-2,6-DIONE DERIVATIVES AND CROHN'S DISEASE TREATING” (Tianjin Hemay Pharmaceutical Sci-Tech Co., Ltd, priority 2016, published 2022).

Marks after values point to notes of the source that are not given here.

For series [1], the system named is DNBS-Induced Inflammatory Bowel Disease Models in Rats. Kind of series: Biological Example 3: DNBS-induced inflammatory bowel disease models in rats. It counts as in vivo, Wistar rats. The conditions noted are these: 30 mg/Kg i.g. qd × 7; for Adhesion Degree of Colon / Colon weight to length ratio / Inhibitory rate of colon adhesion / Inhibitory rate of ulcer area of colon / Inhibitory rate of weight increase per length / Ulcer area of colon: day 7; for Body weight: Mean ± SD. As to the method: 102 male Wistar rats were fasted for 40 hours. A 5% glucose injection (10 mL/Kg) was administered subcutaneously during fasting. 72 rats with normal conditions and moderate body weight were selected from the fasting rats. The animals were randomly divided into 9 groups according to the body weight (see Table 9. Grouped Table).
The animals were anesthetized with ether after 40 hours fasting. A specially made gavage device was slowly inserted into the enteric cavity at 8 cm from the anus. The model control group and each test group were administered with 0.5 mL of 50 mg/mL DNBS in 30% ethanol solution. The normal control group was administered with 0.5 mL of 30% ethanol solution. The animals were inverted in anesthesia for 15 minutes. The day when the model was prepared was day 0 of the experiment. After 4 hours of DNBS induction, the corresponding drug or the corresponding volume of 1% CMC-Na was administered once per day. On day 7 of the experiment, the animals were euthanized to score the colon adhesion degree, measure the length of colon and ulcer area, weigh colon and calculate the colon weight to length ratio.
One-way ANOVA analysis of the length of colon and colon weight per length of rats was performed by SPSS22. Statistical analyses between groups were performed. The adhesion degree was scored. Mann-Whitney U non-parametric test was performed on ulcer area. Statistical analyses between groups were performed.
Calculation Formula of Inhibitory rate of weight increase per length: (Colon weight to length ratio in model group−Colon weight to length ratio in administration group)/(Colon weight to length ratio in model group−Colon weight to length ratio in blank group)

The next series concerns mice. The series is described as follows: Biological Example 5: acute toxicity experiment of single oral administration in mice. The conditions noted are these: single oral 1000 mg/Kg, Mean ± SD. The series is classed as in vivo. In a few lines: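 Fasted ICR mice (19-21 g, three females and three males per group) received a single oral dose of 1000 mg/Kg, given first to one mouse of each sex and then to the remaining four. Behaviour, nervous and autonomic signs, and deaths were recorded over 0-15 min. Animals were then observed for 7 days with daily body weight.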

Take `COCCN1C(=O)CCC(N2C(=O)c3cccc(F)c3C2=O)C1=O` (centres unmarked) [Example 4, 4-fluoro-2-(1-(2-methoxyethyl)-2,6-dioxopiperidin-3-yl)isoindolin-1,3-dione]: in series [1], the “Adhesion Degree of Colon” value is 0.6 ± 0.7 point. The “Colon weight to length ratio” value in series [1] stood at 125 ± 34 mg/cm. Also, in series [1], the “Inhibitory rate of colon adhesion” value is reported as 64.7## %. The “Inhibitory rate of ulcer area of colon” value in series [1] is on record as 81.2# %. The “Inhibitory rate of weight increase per length” value in series [1] is on record as 38.0%. The “Ulcer area of colon” value in series [1] was 0.58 ± 0.78# cm^2. In addition, the Body weight in series [1] (Day 0) was determined as 137.1 ± 6.2 g; in series [1] (Day 1) it was 136.2 ± 4.1 g; in series [1] (Day 2), 138.2 ± 6.9 g; in series [1] (Day 3) it was 141.1 ± 8.8 g; in series [1] (Day 4) it was 151.8 ± 13.4 g; in series [1] (Day 5), 162.5 ± 13.0 g. Further, the Body weight is 170.8 ± 13.0 g in series [1] (Day 6) and 181.0 ± 12.2 g in series [1] (Day 7). Further, the “Daily Body Weight” value in the series on mice (Female mice, Day 1) came out at 18.4 ± 0.4 g; in the series on mice (Female mice, Day 2), 21.8 ± 0.5 g; in the series with mice (Female mice, Day 3), 23.2 ± 0.6 g; in the series on mice (Female mice, Day 4) it was 23.5 ± 1.2 g; in the series with mice (Female mice, Day 5), 24.7 ± 0.9 g; in the series on mice (Female mice, Day 6), 24.2 ± 1.2 g. The “Daily Body Weight” value in the series with mice (Female mice, Day 7) was 24.0 ± 0.8 g; in the series on mice (Male mice, Day 1) it was 17.6 ± 0.2 g; with mice (Male mice, Day 2) it was 22.2 ± 0.3 g; in the series with mice (Male mice, Day 3), 23.6 ± 0.6 g; with mice (Male mice, Day 4), 24.7 ± 0.6 g; in the series on mice (Male mice, Day 5), 26.7 ± 0.4 g. Further, the “Daily Body Weight” value in the series on mice (Male mice, Day 6) turned out to be 27.6 ± 0.8 g; in the series with mice (Male mice, Day 7), 28.2 ± 0.1 g.

For the compound `Nc1cccc2c1C(=O)N(C1CCC(=O)N(CCO)C1=O)C2=O` (centres unmarked) [Example 6, 4-amino-2-(1-(2-hydroxyethyl)-2,6-dioxopiperidin-3-yl)isoindolin-1,3-dione], the “Adhesion Degree of Colon” value in series [1] stood at 0.6 ± 0.5 point. Besides, the “Colon weight to length ratio” value in series [1] is 99 ± 21 mg/cm. Besides, the “Inhibitory rate of colon adhesion” value in series [1] is 64.7# %. Besides, the “Inhibitory rate of ulcer area of colon” value in series [1] was 89.0# %. In addition, the “Inhibitory rate of weight increase per length” value in series [1] is 70.9## %. Further, the “Ulcer area of colon” value in series [1] is 0.34 ± 0.54# cm^2. In addition, the Body weight is listed as 137.5 ± 5.6 g in series [1] (Day 0); 138.1 ± 8.0 g in series [1] (Day 1); 141.8 ± 13.1 g in series [1] (Day 2); 147.4 ± 16.5 g in series [1] (Day 3); 154.5 ± 17.7 g in series [1] (Day 4); 164.2 ± 16.2 g in series [1] (Day 5). In addition, the figures for the Body weight in series [1] (Day 6) and in series [1] (Day 7) were 169.3 ± 18.4 g and 180.9 ± 15.5 g, respectively. The “Daily Body Weight” value with mice (Female mice, Day 1) amounted to 17.5 ± 0.9 g; in the series with mice (Female mice, Day 2) it was 21.5 ± 0.9 g; in the series with mice (Female mice, Day 3), 21.6 ± 1.3 g; in the series on mice (Female mice, Day 4), 22.0 ± 1.2 g; in the series with mice (Female mice, Day 5), 22.3 ± 1.9 g; with mice (Female mice, Day 6), 22.4 ± 2.3 g. Further, the “Daily Body Weight” value with mice (Female mice, Day 7) is 22.9 ± 2.0 g; with mice (Male mice, Day 1) it was 18.4 ± 0.6 g; in the series with mice (Male mice, Day 2), 21.5 ± 0.9 g; in the series with mice (Male mice, Day 3), 21.6 ± 1.3 g; in the series on mice (Male mice, Day 4), 25.5 ± 0.5 g; in the series on mice (Male mice, Day 5), 25.9 ± 0.9 g. In addition, the “Daily Body Weight” value with mice (Male mice, Day 6) is reported as 26.9 ± 1.1 g; with mice (Male mice, Day 7) it was 27.1 ± 1.1 g.

Take `COCCN1C(=O)CCC(N2C(=O)c3ccc(N)cc3C2=O)C1=O` (centres unmarked) [Example 7, 5-amino-2-(1-(2-methoxyethyl)-2,6-dioxopiperidin-3-yl)isoindolin-1,3-dione]: the “Adhesion Degree of Colon” value in series [1] was 0.9 ± 0.8 point. For the same compound, in series [1], the “Colon weight to length ratio” value is on record as 127 ± 52 mg/cm. The “Inhibitory rate of colon adhesion” value in series [1] is recorded as 47.1# %. In addition, the “Inhibitory rate of ulcer area of colon” value in series [1] was 75.1%. The “Inhibitory rate of weight increase per length” value in series [1] was determined as 35.4%. The “Ulcer area of colon” value in series [1] was determined as 0.77 ± 1.05 cm^2. The Body weight turned out to be 136.1 ± 2.5 g in series [1] (Day 0); 136.7 ± 3.7 g in series [1] (Day 1); 137.0 ± 8.7 g in series [1] (Day 2); 141.6 ± 11.9 g in series [1] (Day 3); 148.2 ± 12.7 g in series [1] (Day 4); 159.2 ± 13.2 g in series [1] (Day 5). The Body weight in series [1] (Day 6) came out at 168.0 ± 15.7 g; in series [1] (Day 7), 173.5 ± 18.5 g.

In the case of `COCCCN1C(=O)CCC(N2C(=O)c3cccc(NC(C)=O)c3C2=O)C1=O` (centres unmarked) [Example 16, 4-acetylamino-2-(1-(3-methoxypropyl)-2,6-dioxopiperidin-3-yl)isoindolin-1,3-dione], the “Adhesion Degree of Colon” value in series [1] is on record as 1.1 ± 0.8 point. In addition, the “Colon weight to length ratio” value in series [1] turned out to be 114 ± 23 mg/cm. Moreover, the “Inhibitory rate of colon adhesion” value in series [1] is given as 35.3%. The “Inhibitory rate of ulcer area of colon” value in series [1] is on record as 72.8# %. In addition, the “Inhibitory rate of weight increase per length” value in series [1] is given as 51.9# %. Further, in series [1], the “Ulcer area of colon” value is 0.84 ± 1.25# cm^2. Also, the Body weight in series [1] (Day 0) was determined as 137.3 ± 1.7 g; in series [1] (Day 1) it was 135.9 ± 3.7 g; in series [1] (Day 2) it was 137.6 ± 7.0 g; in series [1] (Day 3) it was 145.0 ± 9.2 g; in series [1] (Day 4), 155.2 ± 10.9 g; in series [1] (Day 5) it was 166.8 ± 10.2 g. The Body weight in series [1] (Day 6) is on record as 171.5 ± 15.1 g; in series [1] (Day 7), 184.3 ± 13.8 g.

Turning to `COCCN1C(=O)CCC(N2C(=O)c3ccc(F)cc3C2=O)C1=O` (centres unmarked) [Example 21, 5-fluoro-2-(1-(2-methoxyethyl)-2,6-dioxopiperidin-3-yl)-isoindolin-1,3-dione], the “Adhesion Degree of Colon” value in series [1] is on record as 0.9 ± 0.7 point. Besides, the “Colon weight to length ratio” value in series [1] is 104 ± 17 mg/cm. The “Inhibitory rate of colon adhesion” value in series [1] is recorded as 47.1# %. For the same compound, in series [1], the “Inhibitory rate of ulcer area of colon” value came out at 70.0%. The “Inhibitory rate of weight increase per length” value in series [1] was 64.6## %. Moreover, the “Ulcer area of colon” value in series [1] worked out at 0.93 ± 1.52 cm^2. Also, the Body weight in series [1] (Day 0) is on record as 135.6 ± 6.9 g; in series [1] (Day 1), 134.4 ± 6.8 g; in series [1] (Day 2), 133.9 ± 6.8 g; in series [1] (Day 3), 138.7 ± 6.8 g; in series [1] (Day 4), 146.4 ± 6.9 g; in series [1] (Day 5), 157.9 ± 8.9 g. In addition, the Body weight in series [1] (Day 6) worked out at 168.3 ± 4.6 g; in series [1] (Day 7), 173.5 ± 7.4 g.
